Earlier results in patent publication US20020037319A1, “Drug preparations” (priority 1999, published 2002).
Counter-ions that a name gives are not always drawn.

What was measured:
[1] = oral, therapeutic dosages between 100 mg and 200 mg per day

## O=C(O)Cc1ccccc1Nc1c(Cl)cccc1Cl [Diclofenac sodium]
other
  solubility in water: sparingly soluble

## O=C(O)Cc1ccccc1Nc1c(Cl)cccc1Cl [diclofenac potassium]
other
  solubility in water: soluble

## O=C(O)Cc1ccccc1Nc1c(Cl)cccc1Cl [diclofenac, 2-[2,6-di-chlorophenyl)amino]benzeneacetic acid, monosodium or monopotassium salt]
[1]
  treated patients who experience some form of GI (gastrointestinal) distress: more than 50%
Sodium or potassium salt
  solubility in chloroform: practically insoluble
  solubility in dilute acid: practically insoluble
  solubility in ethanol: soluble
  solubility in methanol: freely soluble
